Columns and labels:
[1] = tested on: GluN1/GluN3A with mutations W671A and L673A of the GluN3A subunit; assay: Whole-cell patch-clamp on transiently transfected CHO cells, GluN3A pre-M1 alanine mutants; type: cell-based
Description: (§1) To establish GluN1/GluN3A stable cell lines, the human GluN1-1a (GenBank: NP_015566.1) and the rat GluN3A (GenBank: NP_612555.1) genes were subcloned into the pcDNA5-FRT-To and pcDNA3.1 vectors, respectively. An EGFP tag was added to the C-terminus of GluN1 or GluN3A using a T2A linker for identification of transfected cells during transient transfection. Point mutations were introduced by site-directed mutagenesis using PrimeSTAR (Takara). The human GluN2A (GenBank: NP_000824.1) gene was subcloned into the pcDNA3.1 vector. The chimeras GluN3A^670-673 MWPL/LEPF and GluN2A^550-553 LEPF/MWPL were generated using In-Fusion HD Cloning kits (Takara). All constructs were confirmed by DNA sequencing (Beijing Genomics Institute).
The Flp-in T-Rex 293 cell lines (Invitrogen), stably expressing GluN1/GluN3A were grown in DMEM basal medium (Gibco) supplemented with 10% fetal bovine serum (FBS, Invitrogen), 15 μg/ml blasticidin S (Invitrogen), 50 μg/ml hygromycin B (Invitrogen) and 500 μg/ml G418 (Gibco). Expression in cell lines was induced with 1 μg/ml doxycycline (Invitrogen) 24–28 h prior to the experiments. Chinese hamster ovary (CHO) cells were grown in DMEM-F12 basal medium (Gibco) supplemented with 10% FBS. In the study on the action sites of WZB117, all whole-cell patch-clamp recordings were performed on CHO cells. […]

[2] = tested on: GluN1/GluN2 (2A-2D) receptors; assay: TEVC recording in Xenopus oocytes expressing GluN1/GluN2 (2A-2D); type: cell-based; conditions: 30 μM WZB117; 100 μM glycine and 100 μM glutamate coapplied
Description: Two-electrode voltage-clamp (TEVC) recordings were performed on Xenopus oocytes expressing various subtypes of recombinant NMDARs. Each oocyte was injected with a mixture of 0.5–1.0 ng cDNAs or cRNAs encoding wild-type (WT) or mutant GluN1 (GluN1-1a or GluN1-4a) and GluN2 (2A-2D) or GluN3 (3A-3B) at a ratio of 1:1. The mutant GluN1-4a ^F484A/T518L was injected together with GluN3B to boost the currents of GluN1/GluN3B receptors, and WT GluN1-1a was used unless otherwise stated. The cRNAs of GluN1-4a, GluN3A and GluN3B were transcribed from corresponding DNAs using the mMESSAGE mMACHINE T7 Ultra kit (Life Technologies) according to the manufacturer’s instructions, and the others not specified were cDNAs. TEVC recording was performed 24–72 h post injection in extracellular solution containing (in mM): 100 NaCl, 0.3 BaCl2, 2.5 KCl, 0.01 DTPA and 5 HEPES, and the pH was adjusted to 7.3 using NaOH. All recordings were carried out at a holding potential of −60 mV.

GluN1/GluN2A/GluN3A = assay: Whole-cell patch-clamp on HEK-293 cells transiently transfected with GluN1/GluN2A/GluN3A (1:1:2); type: cell-based; conditions: 30 μM WZB117; 100 μM glutamate and 100 μM glycine; mixed receptor population
Description: Whole-cell patch-clamp recordings were performed at room temperature (22–25°C) using an EPC-10 amplifier and Patch Master Software (HEKA). Pipettes were pulled from borosilicate glass capillaries (World Precision Instruments), and the resistances were 3–5 MΩ when filled with the intracellular solution. The extracellular solution contained (in mM): 140 NaCl, 2.8 KCl, 1 CaCl2, 10 HEPES and 20 sucrose (290–300 mOsm), pH adjusted to 7.3 using NaOH. The pipette solution contained (in mM): 115 CsF, 10 CsCl, 10 HEPES and 10 BAPTA (280–290 mOsm), pH adjusted to 7.2 using CsOH ([Grand et al., 2018]). When recording in hippocampal neurons, the extracellular solution contained (in mM): 140 NaCl, 5 KCl, 1 CaCl2, 1.25 MgCl2, 10 glucose, and 10 HEPES, and the pH was adjusted to 7.4 using NaOH, and the pipette solution contained (in mM): 140 KCl, 1 MgCl2, 10 EGTA, and 10 HEPES, and the pH was adjusted to 7.2 using KOH ([Xie et al., 2020]). Drug-containing solutions were applied through an RSC-200 Rapid Solution Changer with a 9-tube head (BioLogic Co., France), in which the cell is positioned close to the output of a capillary. […]
Supplementary Figure S3 Effects of WZB117 on currents from HEK-293 cells co-expressing GluN1/GluN2A/GluN3A subunits. […] The data of GluN1/GluN2A were analyzed from Figure 3D. […]

GluN1/GluN3A receptors = GluN1/GluN3A receptors (UniProt Q05586+Q9R1M7); assay: Whole-cell patch-clamp recording on GluN1/GluN3A Flp-in T-REx 293 stable cell lines; type: cell-based, human GluN1-1a, rat GluN3A; design: expressed in transfected cells
Description: as §1
The Flp-in T-Rex 293 cell lines (Invitrogen), stably expressing GluN1/GluN3A were grown in DMEM basal medium (Gibco) supplemented with 10% fetal bovine serum (FBS, Invitrogen), 15 μg/ml blasticidin S (Invitrogen), 50 μg/ml hygromycin B (Invitrogen) and 500 μg/ml G418 (Gibco). Expression in cell lines was induced with 1 μg/ml doxycycline (Invitrogen) 24–28 h prior to the experiments. Chinese hamster ovary (CHO) cells were grown in DMEM-F12 basal medium (Gibco) supplemented with 10% FBS. In the study on the action sites of WZB117, all whole-cell patch-clamp recordings were performed on CHO cells. The transfections were carried out using Lipofectamine 3000 transfection reagent (Thermo Fisher) according to the manufacturer’s instructions. All cells mentioned above were cultured in a 5% CO2 incubator at 37°C and passaged every other day at a ratio of 1:3.
Whole-cell patch-clamp recordings were performed at room temperature (22–25°C) using an EPC-10 amplifier and Patch Master Software (HEKA). Pipettes were pulled from borosilicate glass capillaries (World Precision Instruments), and the resistances were 3–5 MΩ when filled with the intracellular solution. The extracellular solution contained (in mM): 140 NaCl, 2.8 KCl, 1 CaCl2, 10 HEPES and 20 sucrose (290–300 mOsm), pH adjusted to 7.3 using NaOH. The pipette solution contained (in mM): 115 CsF, 10 CsCl, 10 HEPES and 10 BAPTA (280–290 mOsm), pH adjusted to 7.2 using CsOH ([Grand et al., 2018]). When recording in hippocampal neurons, the extracellular solution contained (in mM): 140 NaCl, 5 KCl, 1 CaCl2, 1.25 MgCl2, 10 glucose, and 10 HEPES, and the pH was adjusted to 7.4 using NaOH, and the pipette solution contained (in mM): 140 KCl, 1 MgCl2, 10 EGTA, and 10 HEPES, and the pH was adjusted to 7.2 using KOH ([Xie et al., 2020]). Drug-containing solutions were applied through an RSC-200 Rapid Solution Changer with a 9-tube head (BioLogic Co., France), in which the cell is positioned close to the output of a capillary. The solution, containing either one drug or a combination of different drugs, to be assayed flows out of the capillary at a moderate flow rate by gravity. The lifted cell, exposed to this stream, rapidly equilibrates in the perfusion solution. Whole-cell patch-clamp recordings in heterologous cells and hippocampal neurons were performed at a holding potential of −60 mV. Currents were sampled at 10 kHz and low pass filtered at 2.9 kHz. To record the native GluN1/GluN3 receptor-mediated currents, the extracellular solution was supplemented with 10 μM bicuculline (Sigma-Aldrich), 2 μM NBQX (Topscience), 100 μM D-APV (MCE), and 50 μM strychnine (UHN Shanghai) to block γ-aminobutyric acid type A (GABAA), α-amino-3-hydroxy-5-methylisoxazole-4-propionate (AMPA), GluN1/GluN2 NMDA and glycine receptors, respectively. To record the native GluN2-NMDARs-mediated currents, 10 μM bicuculline and 2 μM NBQX were added into the extracellular solution to block GABAA receptors and AMPA receptors, respectively ([Grand et al., 2018]; [Otsu et al., 2019]; [Zhu et al., 2020]).
Patch-clamp data were processed using Clampfit 10.4 (Molecular Device, Sunnyvale, CA, United States) and analyzed with GraphPad Prism 5.0 (GraphPad Software, San Diego, CA, United States). […]

Chain of GluN1/GluN3A receptors (Q9R1M7 24-1135, other chains not shown): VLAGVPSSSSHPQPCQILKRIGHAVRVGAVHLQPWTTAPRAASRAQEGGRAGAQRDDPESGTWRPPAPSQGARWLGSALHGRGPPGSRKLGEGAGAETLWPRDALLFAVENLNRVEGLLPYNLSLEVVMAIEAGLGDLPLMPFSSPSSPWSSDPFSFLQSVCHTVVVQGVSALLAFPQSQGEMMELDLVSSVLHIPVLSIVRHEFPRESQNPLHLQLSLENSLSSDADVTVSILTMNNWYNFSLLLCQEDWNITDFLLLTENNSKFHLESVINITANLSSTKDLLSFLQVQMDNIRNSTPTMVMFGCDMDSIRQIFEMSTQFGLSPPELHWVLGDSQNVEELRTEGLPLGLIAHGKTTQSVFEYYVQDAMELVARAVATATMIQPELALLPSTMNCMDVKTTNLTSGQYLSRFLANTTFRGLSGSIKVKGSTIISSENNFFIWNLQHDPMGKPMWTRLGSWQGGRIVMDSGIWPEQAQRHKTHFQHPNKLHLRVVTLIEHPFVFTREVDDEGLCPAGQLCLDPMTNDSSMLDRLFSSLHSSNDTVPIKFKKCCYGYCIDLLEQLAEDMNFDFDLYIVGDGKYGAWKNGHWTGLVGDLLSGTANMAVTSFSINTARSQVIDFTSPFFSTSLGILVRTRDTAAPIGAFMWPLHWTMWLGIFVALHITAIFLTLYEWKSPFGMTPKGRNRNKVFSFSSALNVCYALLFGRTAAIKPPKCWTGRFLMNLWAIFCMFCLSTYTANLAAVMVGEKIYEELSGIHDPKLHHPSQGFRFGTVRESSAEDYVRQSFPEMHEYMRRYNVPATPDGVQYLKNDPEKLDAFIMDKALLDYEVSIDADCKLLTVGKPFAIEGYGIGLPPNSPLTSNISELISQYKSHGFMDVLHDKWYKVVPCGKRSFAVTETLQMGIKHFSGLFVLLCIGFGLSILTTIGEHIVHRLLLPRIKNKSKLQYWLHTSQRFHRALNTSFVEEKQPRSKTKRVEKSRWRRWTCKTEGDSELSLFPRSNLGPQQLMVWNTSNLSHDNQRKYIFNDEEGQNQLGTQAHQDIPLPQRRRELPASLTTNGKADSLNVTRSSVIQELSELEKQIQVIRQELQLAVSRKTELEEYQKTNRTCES

For `O=C(Oc1cccc(F)c1OC(=O)c1cccc(O)c1)c1cccc(O)c1` [WZB117, 3-fluoro-1,2-phenylene bis(3-hydroxybenzoate)], the “influence of mutations on inhibitory effect” value [1] was “significantly influenced the inhibitory effect”, the inhibition of currents [2] was “relatively weak inhibition” and the “I drug/I cotrol” value (GluN1/GluN2A/GluN3A) was 0.22 ± 0.04. It also gave an IC50 (GluN1/GluN3A receptors; 10 μM glycine) of 1080 ± 310 nM, an IC50 (GluN1/GluN3A receptors; 100 μM glycine, pH 7.3, holding potential −60 mV) of 1150 ± 340 nM and a remaining activity at 3 µM (GluN1/GluN3A receptors; Flp-In-T-REx-293, read-out: I drug/I control) of 8 ± 2%.

— paper PMC9218946, “Identification of a Subtype-Selective Allosteric Inhibitor of GluN1/GluN3 NMDA Receptors” (Frontiers in Pharmacology, 2022)
